According to ChEMBL document CHEMBL1149696, “Synthesis and antibacterial activity of C11, C12-cyclic urea analogues of ketolides” (2007):
In brackets after ≈: the same amount, converted by molar mass.

Experiments:
Format in all cases: functional
Staphylococcus aureus [1] = test: Antibacterial activity against erm containing Staphylococcus aureus 1117
Streptococcus pneumoniae [2] = test: Antibacterial activity against erythromycin susceptible Streptococcus pneumoniae 1016
Streptococcus pyogenes [3] = test: Antibacterial activity against erm containing Streptococcus pyogenes 1079
Staphylococcus aureus [4] = test: Antibacterial activity against erythromycin susceptible Staphylococcus aureus 0052
Streptococcus pneumoniae [5] = test: Antibacterial activity against erm containing Streptococcus pneumoniae 1095
Streptococcus pyogenes [6] = test: Antibacterial activity against erythromycin susceptible Streptococcus pyogenes 203
Streptococcus pneumoniae [7] = test: Antibacterial activity against mef containing Streptococcus pneumoniae 1175
Haemophilus influenzae [8] = test: Antibacterial activity against Haemophilus influenzae 1100
Staphylococcus aureus [9] = test: Antibacterial activity against erm containing Staphylococcus aureus 1095
Staphylococcus aureus [10] = test: Antibacterial activity against erythromycin susceptible Staphylococcus aureus 1146
Haemophilus influenzae [11] = test: Antibacterial activity against Haemophilus influenzae 1218

| Structure (SMILES) | MIC (Staphylococcus aureus [1]) | MIC (Streptococcus pneumoniae [2]) | MIC (Streptococcus pyogenes [3]) | MIC (Staphylococcus aureus [4]) | MIC (Streptococcus pneumoniae [5]) | MIC (Streptococcus pyogenes [6]) | MIC (Streptococcus pneumoniae [7]) | MIC (Haemophilus influenzae [8]) | MIC (Staphylococcus aureus [9]) | MIC (Staphylococcus aureus [10]) | MIC (Haemophilus influenzae [11]) |
| --- | --- | --- | --- | --- | --- | --- | --- | --- | --- | --- | --- |
| CC[C@H]1OC(=O)[C@@](C)(F)C(=O)[C@H](C)[C@@H](O[C@@H]2O[C@H](C)C[C@H](N(C)C)[C@H]2O)[C@@](C)(OC)C[C@@H](C)C(=O)[C@H](C)[C@H]2N(CCCCn3cnc(-c4cccnc4)c3)C(=O)N(C)[C@]12C | 100 µg/mL (≈ 119 µM) | 0.013 µg/mL (≈ 0.0154 µM) | 8 µg/mL (≈ 9.49 µM) | 0.024 µg/mL (≈ 0.0285 µM) | 0.025 µg/mL (≈ 0.0297 µM) | 0.024 µg/mL (≈ 0.0285 µM) | 0.2 µg/mL (≈ 0.237 µM) | 2 µg/mL (≈ 2.37 µM) |  |  |  |
| CC[C@H]1OC(=O)[C@@](C)(F)C(=O)[C@H](C)[C@@H](O[C@@H]2O[C@H](C)C[C@H](N(C)C)[C@H]2O)[C@@](C)(OC)C[C@@H](C)C(=O)[C@H](C)[C@H]2N(C/C=C/Cn3cnc4cccnc43)C(=O)N[C@]12C |  | 0.063 µg/mL (≈ 0.0787 µM) | 2 µg/mL (≈ 2.5 µM) |  | 0.063 µg/mL (≈ 0.0787 µM) | 0.063 µg/mL (≈ 0.0787 µM) | 0.25 µg/mL (≈ 0.312 µM) |  | 64 µg/mL (≈ 79.9 µM) | 0.063 µg/mL (≈ 0.0787 µM) | 0.5 µg/mL (≈ 0.624 µM) |
| C/C=C/CN1C(=O)N(CCCCn2cnc(-c3cccnc3)c2)[C@@H]2[C@@H](C)C(=O)[C@H](C)C[C@](C)(OC)[C@H](O[C@@H]3O[C@H](C)C[C@H](N(C)C)[C@H]3O)[C@@H](C)C(=O)[C@](C)(F)C(=O)O[C@H](CC)[C@]21C | 100 µg/mL (≈ 113 µM) | 0.05 µg/mL (≈ 0.0566 µM) | 32 µg/mL (≈ 36.2 µM) | 0.098 µg/mL (≈ 0.111 µM) | 0.1 µg/mL (≈ 0.113 µM) | 0.049 µg/mL (≈ 0.0555 µM) | 0.39 µg/mL (≈ 0.442 µM) | 0.25 µg/mL (≈ 0.283 µM) |  |  |  |
| C=CCN1C(=O)N(CCCCn2cnc(-c3cccnc3)c2)[C@@H]2[C@@H](C)C(=O)[C@H](C)C[C@](C)(OC)[C@H](O[C@@H]3O[C@H](C)C[C@H](N(C)C)[C@H]3O)[C@@H](C)C(=O)[C@](C)(F)C(=O)O[C@H](CC)[C@]21C | 100 µg/mL (≈ 115 µM) | 0.025 µg/mL (≈ 0.0288 µM) | 64 µg/mL (≈ 73.6 µM) | 0.049 µg/mL (≈ 0.0564 µM) | 0.05 µg/mL (≈ 0.0575 µM) | 0.012 µg/mL (≈ 0.0138 µM) | 0.39 µg/mL (≈ 0.449 µM) | 0.5 µg/mL (≈ 0.575 µM) |  |  |  |
| CC[C@H]1OC(=O)[C@H](C)C(=O)[C@H](C)[C@@H](O[C@@H]2O[C@H](C)C[C@H](N(C)C)[C@H]2O)[C@@](C)(OC)C[C@@H](C)C(=O)[C@H](C)[C@H]2N(C/C=C/Cn3cnc(-c4cccnc4)c3)C(=O)N[C@]12C |  | 0.063 µg/mL (≈ 0.0779 µM) | 32 µg/mL (≈ 39.6 µM) |  | 0.063 µg/mL (≈ 0.0779 µM) | 0.063 µg/mL (≈ 0.0779 µM) | 4 µg/mL (≈ 4.94 µM) |  | 64 µg/mL (≈ 79.1 µM) | 0.25 µg/mL (≈ 0.309 µM) | 2 µg/mL (≈ 2.47 µM) |
| CC[C@H]1OC(=O)[C@H](C)C(=O)[C@H](C)[C@@H](O[C@@H]2O[C@H](C)C[C@H](N(C)C)[C@H]2O)[C@@](C)(OC)C[C@@H](C)C(=O)[C@H](C)[C@H]2N(C/C=C/Cn3cnc4cccnc43)C(=O)N[C@]12C |  | 0.063 µg/mL (≈ 0.0805 µM) | 16 µg/mL (≈ 20.4 µM) |  | 0.063 µg/mL (≈ 0.0805 µM) | 0.063 µg/mL (≈ 0.0805 µM) | 1 µg/mL (≈ 1.28 µM) |  | 64 µg/mL (≈ 81.7 µM) | 0.13 µg/mL (≈ 0.166 µM) | 1 µg/mL (≈ 1.28 µM) |
| CC[C@H]1OC(=O)[C@@](C)(F)C(=O)[C@H](C)[C@@H](O[C@@H]2O[C@H](C)C[C@H](N(C)C)[C@H]2O)[C@@](C)(OC)C[C@@H](C)C(=O)[C@H](C)[C@H]2N(C/C=C/Cn3cnc(-c4cccnc4)c3)C(=O)N[C@]12C |  | 0.063 µg/mL (≈ 0.0762 µM) | 4 µg/mL (≈ 4.84 µM) |  | 0.063 µg/mL (≈ 0.0762 µM) | 0.063 µg/mL (≈ 0.0762 µM) | 0.25 µg/mL (≈ 0.302 µM) |  | 64 µg/mL (≈ 77.4 µM) | 0.063 µg/mL (≈ 0.0762 µM) | 0.5 µg/mL (≈ 0.605 µM) |
| CC[C@H]1OC(=O)[C@H](C)C(=O)[C@H](C)[C@@H](O[C@@H]2O[C@H](C)C[C@H](N(C)C)[C@H]2O)[C@@](C)(OC)C[C@@H](C)C(=O)[C@H](C)[C@H]2N(CCCCn3cnc(-c4cccnc4)c3)C(=O)N[C@]12C | 100 µg/mL (≈ 123 µM) | 0.024 µg/mL (≈ 0.0296 µM) | 32 µg/mL (≈ 39.5 µM) | 0.039 µg/mL (≈ 0.0481 µM) | 0.049 µg/mL (≈ 0.0604 µM) | 0.024 µg/mL (≈ 0.0296 µM) | 6.3 µg/mL (≈ 7.77 µM) | 8 µg/mL (≈ 9.86 µM) |  |  |  |
| CC[C@H]1OC(=O)[C@@](C)(F)C(=O)[C@H](C)[C@@H](O[C@@H]2O[C@H](C)C[C@H](N(C)C)[C@H]2O)[C@@](C)(OC)C[C@@H](C)C(=O)[C@H](C)[C@H]2N(CCCCn3cnc(-c4cccnc4)c3)C(=O)N[C@]12C | 100 µg/mL (≈ 121 µM) | 0.006 µg/mL (≈ 0.00724 µM) | 4 µg/mL (≈ 4.82 µM) | 0.049 µg/mL (≈ 0.0591 µM) | 0.012 µg/mL (≈ 0.0145 µM) | 0.006 µg/mL (≈ 0.00724 µM) | 0.78 µg/mL (≈ 0.941 µM) | 2 µg/mL (≈ 2.41 µM) |  |  |  |
| CC[C@H]1OC(=O)[C@@](C)(F)C(=O)[C@H](C)[C@@H](O[C@@H]2O[C@H](C)C[C@H](N(C)C)[C@H]2O)[C@@](C)(OC)C[C@@H](C)C(=O)[C@H](C)[C@H]2N(C/C=C/Cn3cnc(-c4cccnc4)c3)C(=O)N(C)[C@]12C |  | 0.063 µg/mL (≈ 0.0749 µM) | 4 µg/mL (≈ 4.76 µM) |  | 0.063 µg/mL (≈ 0.0749 µM) | 0.063 µg/mL (≈ 0.0749 µM) | 0.063 µg/mL (≈ 0.0749 µM) |  | 64 µg/mL (≈ 76.1 µM) | 0.063 µg/mL (≈ 0.0749 µM) | 1 µg/mL (≈ 1.19 µM) |
| CC[C@H]1OC(=O)[C@@](C)(F)C(=O)[C@H](C)[C@@H](O[C@@H]2O[C@H](C)C[C@H](N(C)C)[C@H]2O)[C@@](C)(OC)C[C@@H](C)C(=O)[C@H](C)[C@H]2N(CCCCn3cnc(-c4cccnc4)c3)C(=O)N(CC)[C@]12C | 100 µg/mL (≈ 117 µM) | 0.013 µg/mL (≈ 0.0152 µM) | 32 µg/mL (≈ 37.3 µM) | 0.049 µg/mL (≈ 0.0572 µM) | 0.025 µg/mL (≈ 0.0292 µM) | 0.024 µg/mL (≈ 0.028 µM) | 0.39 µg/mL (≈ 0.455 µM) | 0.25 µg/mL (≈ 0.292 µM) |  |  |  |
| CC/C=C/CN1C(=O)N(CCCCn2cnc(-c3cccnc3)c2)[C@@H]2[C@@H](C)C(=O)[C@H](C)C[C@](C)(OC)[C@H](O[C@@H]3O[C@H](C)C[C@H](N(C)C)[C@H]3O)[C@@H](C)C(=O)[C@](C)(F)C(=O)O[C@H](CC)[C@]21C | 100 µg/mL (≈ 111 µM) | 0.05 µg/mL (≈ 0.0557 µM) | 64 µg/mL (≈ 71.3 µM) | 0.098 µg/mL (≈ 0.109 µM) | 0.1 µg/mL (≈ 0.111 µM) | 0.098 µg/mL (≈ 0.109 µM) | 0.78 µg/mL (≈ 0.869 µM) | 0.5 µg/mL (≈ 0.557 µM) |  |  |  |
| CC[C@H]1OC(=O)[C@@](C)(F)C(=O)[C@H](C)[C@@H](O[C@@H]2O[C@H](C)C[C@H](N(C)C)[C@H]2O)[C@@](C)(OC)C[C@@H](C)C(=O)[C@H](C)[C@H]2N(C/C=C/Cn3cnc4cccnc43)C(=O)N(C)[C@]12C |  | 0.063 µg/mL (≈ 0.0773 µM) | 2 µg/mL (≈ 2.45 µM) |  | 0.063 µg/mL (≈ 0.0773 µM) | 0.063 µg/mL (≈ 0.0773 µM) | 0.13 µg/mL (≈ 0.16 µM) |  | 64 µg/mL (≈ 78.5 µM) | 0.063 µg/mL (≈ 0.0773 µM) | 0.25 µg/mL (≈ 0.307 µM) |
| CC[C@H]1OC(=O)[C@H](C)C(=O)[C@H](C)[C@@H](O[C@@H]2O[C@H](C)C[C@H](N(C)C)[C@H]2O)[C@](C)(OC)C[C@@H](C)C(=O)[C@H](C)[C@H]2N(CCCCn3cnc(-c4cccnc4)c3)C(=O)O[C@]12C [TELITHROMYCIN] | 100 µg/mL (≈ 123 µM) | 0.013 µg/mL (≈ 0.016 µM) | 32 µg/mL (≈ 39.4 µM) | 0.049 µg/mL (≈ 0.0603 µM) | 0.05 µg/mL (≈ 0.0616 µM) | 0.012 µg/mL (≈ 0.0148 µM) | 0.13 µg/mL (≈ 0.16 µM) | 0.5 µg/mL (≈ 0.616 µM) | 64 µg/mL (≈ 78.8 µM) | 0.063 µg/mL (≈ 0.0776 µM) | 0.5 µg/mL (≈ 0.616 µM) |
